Test results reported in US11744844B2, “Selective estrogen receptor degraders” (Eli Lilly and Company, priority 2021, dated 2023).
Where a name gives a salt, the structure may show the parent alone.

Biological target: T1, ERα (Homo sapiens, UniProt P03372)
T1 construct: measure the degradation of ERα by a test compound in an ERα positive breast cancer cell line such as MCF7; host or cells: MCF7
T1 sequence (P03372 1-595): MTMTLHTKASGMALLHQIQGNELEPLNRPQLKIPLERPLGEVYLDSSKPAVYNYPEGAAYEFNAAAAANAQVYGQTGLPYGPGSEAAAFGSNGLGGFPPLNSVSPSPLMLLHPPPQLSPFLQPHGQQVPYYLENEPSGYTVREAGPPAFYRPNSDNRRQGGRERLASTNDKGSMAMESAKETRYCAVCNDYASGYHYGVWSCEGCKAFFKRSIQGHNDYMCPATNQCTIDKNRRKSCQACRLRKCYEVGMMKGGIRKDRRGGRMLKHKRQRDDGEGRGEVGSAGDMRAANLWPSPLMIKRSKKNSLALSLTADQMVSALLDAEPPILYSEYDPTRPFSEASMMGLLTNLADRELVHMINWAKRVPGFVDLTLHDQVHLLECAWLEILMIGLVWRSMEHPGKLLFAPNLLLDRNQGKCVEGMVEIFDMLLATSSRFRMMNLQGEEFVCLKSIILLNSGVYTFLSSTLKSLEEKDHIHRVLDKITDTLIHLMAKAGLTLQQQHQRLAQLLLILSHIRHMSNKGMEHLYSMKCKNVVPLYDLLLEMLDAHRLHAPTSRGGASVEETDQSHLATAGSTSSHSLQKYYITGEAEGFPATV
Assay: PRα induction assay in MCF7 cells (ERα agonism)
Assay type: cell-based
Settings: MCF7 breast cancer cells, 24 hours, up to 2 μM
Procedure: The purpose of the following PRα induction assay is to determine whether a test compound has agonistic activity against ERα receptor (an agonist would be expected to activate the receptor).
Culture MCF7 (purchased from ATCC HTB-22) in DMEM media supplemented with 10% FBS, 0.01 mg/mL human insulin 1 and 1% penicillin/streptomycin antibiotics and plate the cells (prior to becoming 70% confluent) in 384-well flat-bottom plates at a density of 4,000 cells per well in 20 μL volume in DMEM phenol red free media containing 10% FBS (charcoal stripped). Incubate the cells overnight in a cell culture incubator (5% CO2, 95% relative humidity at 37° C.) and allow the cells to attach to the plate. The following day dose the cells with test compound. Use an Echo 555 acoustic dispenser to prepare compound serial dilutions (1:3) in a range from 6 μM to 0.0003 μM. […]
The following day wash cells with PBS 0.05% TWEEN® 20 (2×20 μL) and incubate with secondary antibody (20 μL/well) (1:1000 dilution, Goat anti-rabbit IgM ALEXA FLUOR™ 488) in PBS 1% BSA for 105 minutes at room temperature. […] Scan plates with ACUMEN EXPLORER™ (Laser-scanning fluorescence microplate cytometer manufactured by TTP LABTECH LTD) to measure PRα. […]

Compound	agonistic activity (PRα induction)
O=S(=O)(O)Oc1ccc2c3c(cnc2c1)-c1ccc(C(F)(F)F)cc1O[C@@H]3c1ccc(OCCN2CC(CF)C2)cc1 [Example 1, [(5R)-5-[4-[2-[3-(Fluoromethyl)azetidin-1-yl]ethoxy]phenyl]-8-(trifluoromethyl)-5H-chromeno[4,3-c]quinolin-2-yl]hydrogen sulfate]	no significant agonistic activity
O=C(O)[C@H]1O[C@@H](Oc2ccc3c4c(cnc3c2)-c2ccc(C(F)(F)F)cc2O[C@@H]4c2ccc(OCCN3CC(CF)C3)cc2)[C@H](O)[C@@H](O)[C@@H]1O [Example 2, (2S,3S,4S,5R,6S)-6-[[(5R)-5-[4-[2-[3-(Fluoromethyl)azetidin-1-yl]ethoxy]phenyl]-8-(trifluoromethyl)-5H-chromeno[4,3-c]quinolin-2-yl]oxy]-3,4,5-trihydroxy-tetrahydropyran-2-carboxylic acid]	no significant agonistic activity
